Drawing on ChEMBL document CHEMBL1909046, “DrugMatrix in vitro pharmacology data”, this text covers IC50 and Ki for ten molecules.

A short description of assay [1]: DRUGMATRIX: Glutamate, NMDA, Agonism radioligand binding (ligand: [3H] CGP-39653). The class given is cell membranes, Rattus norvegicus, Wistar, Cerebral cortex, Membrane. As to conditions: Not Active = under 50% inhibition at 10 µM.
The nature of assay [2]: DRUGMATRIX: GABAA, Muscimol, Central radioligand binding (ligand: [3H] Muscimol). The class given is cell membranes, Rattus norvegicus, Wistar, Brain, Membrane. As to conditions: Not Active = under 50% inhibition at 10 µM.
Assay [3] addresses Beta-1 adrenergic receptor (Homo sapiens, UniProt P08588). Kind of assay: DRUGMATRIX: Adrenergic beta1 radioligand binding (ligand: [125I] Cyanopindolol). Type of assay: cell membranes, CHO-K1, Membrane. The note with it: cho-k1; Not Active = under 50% inhibition at 10 µM.
The target in assay [4] is T1, Cholecystokinin receptor type A (Homo sapiens, UniProt P32238). Note: in other assays of this panel Not Active means under 50% inhibition at 10 µM.
T1 sequence (P32238 whole entry): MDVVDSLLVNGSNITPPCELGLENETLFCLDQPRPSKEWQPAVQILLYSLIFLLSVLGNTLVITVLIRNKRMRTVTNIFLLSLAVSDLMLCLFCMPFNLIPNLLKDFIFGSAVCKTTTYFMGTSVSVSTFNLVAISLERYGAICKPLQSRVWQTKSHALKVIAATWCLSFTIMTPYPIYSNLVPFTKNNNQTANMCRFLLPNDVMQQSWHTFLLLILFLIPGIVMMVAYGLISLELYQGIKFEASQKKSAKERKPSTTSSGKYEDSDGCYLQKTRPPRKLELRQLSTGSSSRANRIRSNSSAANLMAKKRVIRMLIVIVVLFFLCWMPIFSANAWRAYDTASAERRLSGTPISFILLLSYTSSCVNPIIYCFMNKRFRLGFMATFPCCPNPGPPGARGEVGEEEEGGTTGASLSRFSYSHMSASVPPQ
Type of assay: cell membranes, Membrane. As to conditions: 1321-n1.

A further assay has as its target Acetylcholinesterase (Homo sapiens, UniProt P22303). Nature of the assay: DRUGMATRIX: Acetylcholinesterase enzyme inhibition (substrate: acetylthiocholine). Type of assay: cell-based, HEK293. The note with it: hek293; Not Active = under 50% inhibition at 10 µM.
A short description of assay [5]: DRUGMATRIX: Interleukin IL-1 radioligand binding (ligand: [125I] interleukin 1beta). The note with it: nih3t3; Not Active = under 50% inhibition at 10 µM. The class given is cell membranes, Membrane.
Assay [6] concerns the target Aldo-keto reductase family 1 member B1 (Rattus norvegicus, UniProt P07943). Kind of assay: biochemical. The class given is tissue-based, Lens of camera-type eye.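 Note: inhibition of aldose reductase enzyme activity, measured with DL-glyceraldehyde as the substrate; in other assays of this panel Not Active means under 50% inhibition at 10 µM.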
Assay [7] concerns the target Protein phosphatase 3 catalytic subunit alpha (Homo sapiens, UniProt Q08209). Set-up: species or system Escherichia coli.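 Note: inhibition of calcineurin (PP2B) enzyme activity, measured with DiFMUP as the substrate; in other assays of this panel Not Active means under 50% inhibition at 10 µM.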

Sequence of Beta-1 adrenergic receptor (P08588 whole entry): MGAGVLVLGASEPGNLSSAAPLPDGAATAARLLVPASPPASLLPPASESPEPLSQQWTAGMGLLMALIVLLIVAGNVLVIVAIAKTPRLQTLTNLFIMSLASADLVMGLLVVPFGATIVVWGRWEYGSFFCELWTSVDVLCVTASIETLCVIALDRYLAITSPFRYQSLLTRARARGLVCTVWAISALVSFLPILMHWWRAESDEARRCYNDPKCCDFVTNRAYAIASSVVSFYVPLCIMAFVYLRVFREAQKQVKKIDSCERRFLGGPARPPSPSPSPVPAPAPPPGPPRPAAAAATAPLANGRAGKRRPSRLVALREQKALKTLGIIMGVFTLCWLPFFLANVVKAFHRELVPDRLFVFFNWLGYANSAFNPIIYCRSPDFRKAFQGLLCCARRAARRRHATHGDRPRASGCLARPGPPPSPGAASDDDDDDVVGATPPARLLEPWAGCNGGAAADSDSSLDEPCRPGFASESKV
Sequence of Acetylcholinesterase (P22303 whole entry): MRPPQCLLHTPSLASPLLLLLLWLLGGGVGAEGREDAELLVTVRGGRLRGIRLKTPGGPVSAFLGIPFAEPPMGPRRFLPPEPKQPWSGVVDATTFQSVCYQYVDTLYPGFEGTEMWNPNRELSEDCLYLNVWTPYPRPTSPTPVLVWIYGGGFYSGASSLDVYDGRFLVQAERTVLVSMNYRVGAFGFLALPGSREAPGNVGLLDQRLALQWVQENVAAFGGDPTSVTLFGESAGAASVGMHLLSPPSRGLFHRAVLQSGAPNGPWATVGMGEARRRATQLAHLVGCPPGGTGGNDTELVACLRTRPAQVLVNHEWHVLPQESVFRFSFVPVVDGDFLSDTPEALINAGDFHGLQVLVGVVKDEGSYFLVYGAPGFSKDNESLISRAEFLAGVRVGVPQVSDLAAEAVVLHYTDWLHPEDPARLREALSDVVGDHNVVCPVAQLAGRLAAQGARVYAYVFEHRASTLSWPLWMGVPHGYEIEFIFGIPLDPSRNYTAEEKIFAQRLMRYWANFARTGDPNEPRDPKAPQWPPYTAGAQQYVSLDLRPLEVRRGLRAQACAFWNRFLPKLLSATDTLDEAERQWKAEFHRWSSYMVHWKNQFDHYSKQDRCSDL

As for `N=C(N)c1ccc(OCCCCCOc2ccc(C(=N)N)cc2)cc1` [PENTAMIDINE], the IC50 result (in assay [1]; in assay [2]; in assay [3]; in assay [4]; against Acetylcholinesterase; in assay [5]) was “Not Active” in each case. Further, the IC50 entry in assay [6] and in assay [7] was “Not Active” in each case. Also, the Ki result in assay [1], in assay [2] and in assay [5] was “Not Active” in each case.
Turning to `NNCCc1ccccc1` [PHENELZINE], the IC50 result (in assay [1]; in assay [2]; in assay [3]; in assay [4]; on Acetylcholinesterase; in assay [5]) was “Not Active” each time. Besides, the IC50 entry in assay [6] and in assay [7] was “Not Active” throughout. Also, the Ki result in assay [1], in assay [2] and in assay [5] was “Not Active” throughout.
As for `CCc1ccc(CCOc2ccc(CC3SC(=O)NC3=O)cc2)nc1` (stereo not given) [PIOGLITAZONE], the IC50 entry (in assay [1]; in assay [2]; in assay [3]; in assay [4]; at Acetylcholinesterase; in assay [5]) was “Not Active” in each case. The IC50 (commonly the midpoint of a concentration-inhibition curve) in assay [6] (read-out: IC50) was 13.2 µM; in assay [7], “Not Active”. The Ki entry in assay [1], in assay [2] and in assay [5] was “Not Active” each time.
As to `CCCNC(C)C(=O)Nc1ccccc1C` (stereo not given) [PRILOCAINE], the IC50 entry (in assay [1]; in assay [2]; in assay [3]; in assay [4]; against Acetylcholinesterase; in assay [5]) was “Not Active” throughout. The IC50 entry in assay [6] and in assay [7] was “Not Active” in each case. Besides, the Ki result in assay [1], in assay [2] and in assay [5] was “Not Active” each time.
Consider `CCN(CC)CCNC(=O)c1ccc(N)cc1` [PROCAINAMIDE], for which the half-inhibitory concentration (IC50) result (in assay [1]; in assay [2]; in assay [3]; in assay [4]; against Acetylcholinesterase; in assay [5]) was “Not Active” each time. In addition, the IC50 result in assay [6] and in assay [7] was “Not Active” each time. Moreover, the Ki entry in assay [1], in assay [2] and in assay [5] was “Not Active” throughout.
For the molecule `C[C@]12C=CC(=O)C=C1CC[C@H]1[C@@H]3C[C@@H](O)[C@](O)(C(=O)CO)[C@@]3(C)C[C@H](O)[C@@]12F` [TRIAMCINOLONE], the IC50 entry (in assay [1]; in assay [2]; in assay [3]; in assay [4]; at Acetylcholinesterase; in assay [5]) was “Not Active” throughout. For the same molecule, the IC50 result in assay [6] and in assay [7] was “Not Active” each time. Moreover, the Ki entry in assay [1], in assay [2] and in assay [5] was “Not Active” in each case.
Regarding `CC[C@]1(O)C[C@@H]2CN(CCc3c([nH]c4ccccc34)[C@@](C(=O)OC)(c3cc4c(cc3OC)N(C)[C@H]3[C@@](O)(C(N)=O)[C@H](O)[C@]5(CC)C=CCN6CC[C@]43[C@@H]65)C2)C1` [VINDESINE], the IC50 result (in assay [1]; in assay [2]; in assay [3]; in assay [4]; on Acetylcholinesterase; in assay [5]) was “Not Active” in each case. The IC50 entry in assay [6] and in assay [7] was “Not Active” each time. Moreover, the Ki result in assay [1], in assay [2] and in assay [5] was “Not Active” each time.
Regarding `CCN(C(C)=O)c1cccc(-c2ccnc3c(C#N)cnn23)c1` [ZALEPLON], the IC50 entry (in assay [1]; in assay [2]; in assay [3]; in assay [4]; on Acetylcholinesterase; in assay [5]) was “Not Active” throughout. Moreover, the IC50 result in assay [6] and in assay [7] was “Not Active” in each case. In addition, the Ki entry in assay [1], in assay [2] and in assay [5] was “Not Active” each time.
As to COBALTOUS CHLORIDE, the IC50 result (in assay [1]; in assay [2]; in assay [3]; in assay [4]; on Acetylcholinesterase; in assay [5]) was “Not Active” throughout. Further, the IC50 entry in assay [6] and in assay [7] was “Not Active” throughout. Further, the Ki result (in assay [1]; in assay [2]; in assay [3]; in assay [4]; at Acetylcholinesterase; in assay [5]) was “Not Active” throughout. The Ki result in assay [6] and in assay [7] was “Not Active” throughout.
Turning to COLISTIN, the IC50 entry (in assay [1]; in assay [2]; in assay [3]; in assay [4]; on Acetylcholinesterase; in assay [5]) was “Not Active” in each case. The IC50 result in assay [6] and in assay [7] was “Not Active” in each case. The Ki result (in assay [1]; in assay [2]; in assay [3]; in assay [4]; at Acetylcholinesterase; in assay [5]) was “Not Active” each time. Further, the Ki result in assay [6] and in assay [7] was “Not Active” in each case.
